Data as given in US7989466B2, “Methods to inhibit or augment an inflammatory response” (Cambridge Enterprise Limited, priority 1999, dated 2011).
Positions of bridges follow the written chain, without caps; N, C: chain ends. Non-standard residues stand in square brackets, D forms with d. Residues, ends and D or L forms follow the SMILES beside them.

Tests used:
[1] = test system: lung CD3, CD4, B220 cells; assay: Lung cell number and type in normal mice; assay type: in vivo, mouse; settings: high dose, all routes of administration, versus PBS controls
Procedure: To determine whether increasing doses of CRD-Leu4Ile11Cys13 peptide 3(3-12)[MCP-1] alters the cell number and type of cell within the lungs of normal mice, mice were injected intravenously, intravenously and intratracheally, or intratracheally alone with CRD-Leu4Ile11Cys13 peptide 3(3-12)[MCP-1]. Mice were sacrificed at 20-24 hours post injection. Lungs were collected for isolation of cells, which were subsequently counted and characterized by surface staining for CD3, CD4, CD8, B220, and Mac-1.

B cells = assay type: cell-based
[2] = test system: splenocyte recall response to Ova; assay: Splenocyte recall cultures from ovalbumin-challenged treated mice; assay type: in vivo, mouse; parameters: IL-4, Avg. of Group: unit not given here
Procedure: In another study, BALB/c mice were sensitized with 0.1 mg of ovalbumin (OVA) or PBS (diluent control) intraperitoneally. Eight days following initial sensitization mice were challenged intratracheally with 1% ovalbumin or PBS (diluent control). On days fifteen, eighteen, twenty one, and thirty four, mice were challenged intratracheally with 2% ovalbumin of PBS. […] Thirty minutes following treatment, mice were challenged intratracheally with 2% OVA and sacrificed 3 hours after OVA challenge. […] On day 34 mice were re-challenged intratracheally with either 2% OVA or PBS. Mice were sacrificed 3 hours after challenge. Following sacrifice on day 21 or 34, lungs were collected for histopathology and for isolation of cells for total cell counts and identification by FACS analysis. Serum was collected for IgE and IL-4 levels. Spleens were collected for cytokine and antibody recall responses.

[3] = molecular target: recombinant human chemokine receptors (CCR1-5, CXCR4, CXCR1, CXCR2); assay: Binding of biotin-labeled peptides to chemokine receptor expressing HOS/CHO lines; settings: no evidence for any binding; read-out: affinity of any binding to recombinant human chemokine receptors
Procedure: Iodinated-RANTES and iodinated-MCP-1 (Amersham) were reconstituted in MilliQ water to a concentration of 50 nM (0.1 μCi/μl) with a specific activity of 2000 Ci/mmole. Iodinated-streptavidin was obtained (Amersham) at a stock concentration of 47 nM (0.1 μCi/μl) and a specific activity of 38 μCi/μg (55,000 Da). Cold RANTES and MCP-1 were purchased from R&D Systems (Minneapolis, Minn.), reconstituted in sterile PBS+1 mg/ml fatty acid free BSA (FAF-BSA) (Sigma A-6003) at 10 μg/ml ([…]). Cold streptavidin (Calbiochem) was reconstituted in sterile MilliQ to a concentration of 4 mg/ml (90 μM).
FAF-BSA was used throughout. All experiments were performed in binding medium (50 mM HEPES, 1 mM CaCl2, 1 mM MgCl2, 0.5% FAF-BSA pH 7.5) as described by Ruffing et al. (Cell. Immunol., 189, 160 (1998)) unless stated otherwise. Reactions were all performed at 4° C. and all buffers were pre-cooled to 4° C. unless stated otherwise.
The biotinylated peptide was synthesized as an N-terminal biotin conjugate of the sequence n′-[…]-c′ (SEQ ID NO:152; Affiniti Research) and confirmed as >90% pure by HPLC. […]
The binding of labeled peptide 2 and labeled peptide 3 to the parental HOS, parental CHO and 8 chemokine receptor expressing lines was compared. […] The amount of streptavidin molecules added was calculated in each case to be approximately 50-fold in excess over the number of chemokine receptor sites. […]

Row | Compound | percentages of CD3, CD4 and B220 cells in lungs of normal mice [1] | effect on proliferation of B cells to tetanus toxoid (B cells) | IL-4, Avg. of Group ([2]; Group 5: Ova days 8, 15, 18, 21, peptide BID 14 days, sacrifice day 34 (No recent Ova challenge), 0 μg/ml Ova) | Total IgE (1 week splenocyte cultures) ([2]; Group 5, 5 μg/ml Ova) [ng/mL] | Total IgE (1 week splenocyte cultures), Avg. ([2]; Group 5, 5 μg/ml Ova) | Kd [3] [µM]
1 | CC[C@@H](C)[C@H]1NC(=O)[C@@H](CCC(N)=O)NC(=O)[C@H](N)CSSC[C@H](C(N)=O)NC(=O)[C@@H](CC(C)C)NC(=O)[C@@H](CC(=O)O)NC(=O)[C@H]2CCCN2C(=O)[C@@H](CCCCN)NC(=O)[C@@H](CCC(N)=O)NC(=O)[C@@H](CCCCN)NC(=O)[C@@H](Cc2c[nH]c3ccccc23)NC1=O (H-[dC][dQ][dI][dW][dK][dQ][dK][dP][dD][dL][dC]-NH2; disulfide 1-11; N-terminus assumed) | significantly reduced | no effect | 8.05 | 0.082 | 0.021 | 
2 | EICADPKQKWVQ [peptide 3(1-12)[MCP-1]] |  |  |  |  |  | > 10
